Assay results taken from publication PMC7662385, “New Fluorene Derivatives from Dendrobium gibsonii and Their α-Glucosidase Inhibitory Activity” (Molecules, 2020).
Read-outs that look alike come from different tables or passages of the source.

Key:
[1] = molecular target: α-glucosidase; assay: α-glucosidase inhibition assay (p-nitrophenol release from p-nitrophenol-α-D-glucopyranoside); format: biochemical, Yeast; settings: two-fold serial dilution; acarbose positive control; read-out: α-glucosidase inhibitory activity IC50
Protocol: In this study, each compound was initially tested at 100 μg/mL.
(§1) The α-glucosidase inhibition assay was performed according to previous protocols. The assay was based on the release of p-nitrophenol from p-nitrophenol-α-D-glucopyranoside (substrate). The test samples were prepared by dissolving in 50% DMSO. […] The sample solution (10 μL) and 0.1 U/mL α-glucosidase (40 μL) in phosphate buffer (pH 6.8) were added to a 96-well plate. The mixture was preincubated at 37 °C for 10 min before adding 2 mM p-nitrophenol-α-D-glucopyranoside (50 μL). Then, the reaction was incubated again at 37 °C for 20 min. Finally, 1 M Na2CO3 solution (100 μL) was added to stop the reaction. The absorbance of the mixture was determined using a microplate reader at 405 nm.

[2] = system: α-glucosidase; assay: α-glucosidase enzyme kinetic study (Lineweaver–Burk and secondary plots); format: biochemical, Yeast; settings: for mode of α-glucosidase inhibition: Lineweaver–Burk plots
Protocol: Further investigation was conducted on compound 2 to study its kinetic properties with regard to the enzyme α-glucosidase using varying concentrations of the substrate.
as §1
An enzyme kinetic study was conducted based on the α-glucosidase assay as mentioned above. […] The inhibition mode was determined by double-reciprocal Lineweaver–Burk plot (1/V vs. 1/[S]). In order to estimate the Ki value, slopes of double-reciprocal lines were used to construct a secondary plot, and the Ki was calculated from the line equation of the plot.

SMILES | IC50 [1] | mode of α-glucosidase inhibition [2] | Ki ([2]; from secondary plot of slopes of double-reciprocal lines) | Vmax ([2]; inhibitor dose 11 μM, PNPG 0.25 to 2 mM) | Km ([2]; inhibitor dose 11 μM, PNPG 0.25 to 2 mM, read-out: Km) | Vmax ([2]; inhibitor dose 22 μM, PNPG 0.25 to 2 mM) | Km ([2]; inhibitor dose 22 μM, PNPG 0.25 to 2 mM, read-out: Km) | Km ([2]; with changing inhibitor concentration, dose not given, read-out: Km as stated in text) | Vmax ([2]; inhibitor dose 465 μM, PNPG 0.25 to 2 mM) | Km ([2]; inhibitor dose 465 μM, PNPG 0.25 to 2 mM, read-out: Km) | Vmax ([2]; inhibitor dose 930 μM, PNPG 0.25 to 2 mM) | Vmax as stated in text ([2]; with changing inhibitor concentration, dose not given)
COc1cc2c3c(c1O)CCc1cc(OC)c(OC)c(c1-3)OC21c2cccc(O)c2-c2c1cc(OC)c(O)c2OC (centres unmarked) [Compound 2, dendrogibsol] | 19.8 ± 0.9 µM | noncompetitive | 20.4 µM | 0.086 ∆OD/min | 1230 µM | 0.052 ∆OD/min | 1190 µM | 1550 µM | – | – | – | –
COc1cc(O)c2c(c1)CCc1cc(O)ccc1-2 [Compound 7, lusianthridin] | 185 ± 6.9 µM | – | – | – | – | – | – | – | – | – | – | –
C[C@H]1O[C@H](O[C@H]2[C@H](O)[C@@H](O)[C@@H](O[C@H]3[C@H](O)[C@@H](O)C(O)O[C@@H]3CO)O[C@@H]2CO)[C@H](O)[C@@H](O)[C@@H]1N[C@H]1C=C(CO)[C@@H](O)[C@H](O)[C@H]1O (some centres unmarked) [acarbose, reference compound] | – | competitive | – | – | – | – | – | – | 0.10 ∆OD/min | 6740 µM | 0.11 ∆OD/min | 0.11 ∆OD/min
